# From ChEMBL document CHEMBL1124571, “Cardiac glycoside-like structure and function of 5 beta,14 beta-pregnanes” (J Med Chem, 1989)
# Target: Sodium/potassium-transporting ATPase
# Experiment: Compound is evaluated for inhibition of specific binding of [3H]ouabain to membranes from dog heart
# Design: species or system Canis lupus familiaris
row,Compound,IC50 [µM]
1,CC(=O)[C@H]1CC[C@@]2(C)[C@@H](CC[C@@H]3[C@@H]2CC[C@]2(C)[C@@H](C(C)=O)CC[C@@]32O)C1,20
2,C[C@H](O)[C@H]1CC[C@@]2(O)[C@@H]3CCC4C[C@@H](OC5CC(O)C(O)C(CO)O5)CC[C@]4(C)[C@H]3CC[C@]12C (stereo in doubt),0.06
3,CC(=O)[C@H]1CCC2(O)C3CCC4CC(O)CCC4(C)C3CCC12C (stereo partly drawn),> 400
4,CC(=O)[C@H]1CC[C@@]2(O)[C@@H]3CC[C@H]4CC(=O)CC[C@]4(C)[C@H]3CC[C@]12C,46
5,C[C@H](O)[C@H]1CC[C@@]2(O)[C@@H]3CCC4C[C@@H](OC5CC(O)C(O)C(CO)O5)CC[C@]4(C)[C@H]3CC[C@]12C (stereo in doubt; 5),0.4
6,CC(O)[C@H]1CC[C@@]2(O)[C@@H]3CCC4C[C@@H](O)CC[C@]4(C)[C@H]3CC[C@]12C (stereo partly drawn),6
7,CC(=O)[C@@H]1CC[C@@]2(C)[C@@H](CC[C@@H]3[C@@H]2CC[C@]2(C)C([C@H](C)O)CC[C@@]32O)C1 (stereo partly drawn),6
8,CC(=O)[C@H]1CC[C@@]2(O)[C@@H]3CC[C@H]4C[C@@H](O)CC[C@]4(C)[C@H]3CC[C@]12C,21
